Results from the NIST ThermoML archive (doi:10.1021/je050358g).
Numbers after ± are expanded uncertainties.

Conditions: Liquid, vibrating tube

## CCCCCCCCCCCCCC[P+](CCCCCC)(CCCCCC)CCCCCC.O=S(=O)([N-]S(=O)(=O)C(F)(F)F)C(F)(F)F
298.15 K, 210 kPa
  mass density: 1066.62 ± 2.8 kg/m3
298.15 K, 540 kPa
  mass density: 1066.84 ± 2.8 kg/m3
298.15 K, 1000 kPa
  mass density: 1067.13 ± 2.8 kg/m3
298.15 K, 3000 kPa
  mass density: 1068.44 ± 2.8 kg/m3
298.15 K, 5010 kPa
  mass density: 1069.7 ± 2.8 kg/m3
298.15 K, 7500 kPa
  mass density: 1071.3 ± 2.8 kg/m3
298.15 K, 9990 kPa
  mass density: 1072.85 ± 2.8 kg/m3
298.15 K, 15010 kPa
  mass density: 1075.88 ± 2.8 kg/m3
298.15 K, 19990 kPa
  mass density: 1078.82 ± 2.8 kg/m3
298.15 K, 25010 kPa
  mass density: 1081.69 ± 2.9 kg/m3
298.15 K, 29990 kPa
  mass density: 1084.45 ± 2.9 kg/m3
298.15 K, 35010 kPa
  mass density: 1087.15 ± 2.9 kg/m3
298.15 K, 40000 kPa
  mass density: 1089.79 ± 2.9 kg/m3
298.15 K, 45010 kPa
  mass density: 1092.36 ± 2.9 kg/m3
298.15 K, 50000 kPa
  mass density: 1094.88 ± 2.9 kg/m3
298.15 K, 55010 kPa
  mass density: 1097.34 ± 2.9 kg/m3
298.15 K, 59990 kPa
  mass density: 1099.74 ± 2.9 kg/m3
298.15 K, 65010 kPa
  mass density: 1102.11 ± 2.9 kg/m3
303.25 K, 210 kPa
  mass density: 1062.61 ± 2.8 kg/m3
303.25 K, 540 kPa
  mass density: 1062.85 ± 2.8 kg/m3
303.25 K, 1000 kPa
  mass density: 1063.14 ± 2.8 kg/m3
303.25 K, 3000 kPa
  mass density: 1064.47 ± 2.8 kg/m3
303.25 K, 5010 kPa
  mass density: 1065.77 ± 2.8 kg/m3
303.25 K, 7500 kPa
  mass density: 1067.39 ± 2.8 kg/m3
303.25 K, 9990 kPa
  mass density: 1068.97 ± 2.8 kg/m3
303.25 K, 15010 kPa
  mass density: 1072.09 ± 2.8 kg/m3
303.25 K, 19990 kPa
  mass density: 1075.07 ± 2.8 kg/m3
303.25 K, 25010 kPa
  mass density: 1078 ± 2.8 kg/m3
303.25 K, 29990 kPa
  mass density: 1080.84 ± 2.9 kg/m3
303.25 K, 35010 kPa
  mass density: 1083.56 ± 2.9 kg/m3
303.25 K, 40000 kPa
  mass density: 1086.26 ± 2.9 kg/m3
303.25 K, 45010 kPa
  mass density: 1088.87 ± 2.9 kg/m3
303.25 K, 50000 kPa
  mass density: 1091.44 ± 2.9 kg/m3
303.25 K, 55010 kPa
  mass density: 1093.95 ± 2.9 kg/m3
303.25 K, 59990 kPa
  mass density: 1096.39 ± 2.9 kg/m3
303.25 K, 65010 kPa
  mass density: 1098.81 ± 2.9 kg/m3
308.15 K, 210 kPa
  mass density: 1058.87 ± 2.8 kg/m3
308.15 K, 540 kPa
  mass density: 1059.07 ± 2.8 kg/m3
308.15 K, 1000 kPa
  mass density: 1059.37 ± 2.8 kg/m3
308.15 K, 3000 kPa
  mass density: 1060.76 ± 2.8 kg/m3
308.15 K, 5010 kPa
  mass density: 1062.11 ± 2.8 kg/m3
308.15 K, 7500 kPa
  mass density: 1063.74 ± 2.8 kg/m3
308.15 K, 9990 kPa
  mass density: 1065.36 ± 2.8 kg/m3
308.15 K, 15010 kPa
  mass density: 1068.53 ± 2.8 kg/m3
308.15 K, 19990 kPa
  mass density: 1071.57 ± 2.8 kg/m3
308.15 K, 25010 kPa
  mass density: 1074.54 ± 2.8 kg/m3
308.15 K, 29990 kPa
  mass density: 1077.42 ± 2.8 kg/m3
308.15 K, 35010 kPa
  mass density: 1080.23 ± 2.9 kg/m3
308.15 K, 40000 kPa
  mass density: 1082.95 ± 2.9 kg/m3
308.15 K, 45010 kPa
  mass density: 1085.64 ± 2.9 kg/m3
308.15 K, 50000 kPa
  mass density: 1088.25 ± 2.9 kg/m3
308.15 K, 55010 kPa
  mass density: 1090.8 ± 2.9 kg/m3
308.15 K, 59990 kPa
  mass density: 1093.3 ± 2.9 kg/m3
308.15 K, 65010 kPa
  mass density: 1095.75 ± 2.9 kg/m3
318.27 K, 210 kPa
  mass density: 1051.54 ± 2.8 kg/m3
318.27 K, 540 kPa
  mass density: 1051.79 ± 2.8 kg/m3
318.27 K, 1000 kPa
  mass density: 1052.1 ± 2.8 kg/m3
318.27 K, 3000 kPa
  mass density: 1053.49 ± 2.8 kg/m3
318.27 K, 5010 kPa
  mass density: 1054.88 ± 2.8 kg/m3
318.27 K, 7500 kPa
  mass density: 1056.54 ± 2.8 kg/m3
318.27 K, 9990 kPa
  mass density: 1058.2 ± 2.8 kg/m3
318.27 K, 15010 kPa
  mass density: 1061.47 ± 2.8 kg/m3
318.27 K, 19990 kPa
  mass density: 1064.6 ± 2.8 kg/m3
318.27 K, 25010 kPa
  mass density: 1067.62 ± 2.8 kg/m3
318.27 K, 29990 kPa
  mass density: 1070.51 ± 2.8 kg/m3
318.27 K, 35010 kPa
  mass density: 1073.32 ± 2.8 kg/m3
318.27 K, 40000 kPa
  mass density: 1076.09 ± 2.8 kg/m3
318.27 K, 45010 kPa
  mass density: 1078.77 ± 2.8 kg/m3
318.27 K, 50000 kPa
  mass density: 1081.37 ± 2.9 kg/m3
318.27 K, 55010 kPa
  mass density: 1084 ± 2.9 kg/m3
318.27 K, 59990 kPa
  mass density: 1086.5 ± 2.9 kg/m3
318.27 K, 65010 kPa
  mass density: 1088.91 ± 2.9 kg/m3
323.33 K, 210 kPa
  mass density: 1047.84 ± 2.8 kg/m3
323.33 K, 540 kPa
  mass density: 1048.07 ± 2.8 kg/m3
323.33 K, 1000 kPa
  mass density: 1048.38 ± 2.8 kg/m3
323.33 K, 3000 kPa
  mass density: 1049.81 ± 2.8 kg/m3
323.33 K, 5010 kPa
  mass density: 1051.24 ± 2.8 kg/m3
323.33 K, 7500 kPa
  mass density: 1052.94 ± 2.8 kg/m3
323.33 K, 9990 kPa
  mass density: 1054.64 ± 2.8 kg/m3
323.33 K, 15010 kPa
  mass density: 1057.95 ± 2.8 kg/m3
323.33 K, 19990 kPa
  mass density: 1061.14 ± 2.8 kg/m3
323.33 K, 25010 kPa
  mass density: 1064.22 ± 2.8 kg/m3
323.33 K, 29990 kPa
  mass density: 1067.21 ± 2.8 kg/m3
323.33 K, 35010 kPa
  mass density: 1070.14 ± 2.8 kg/m3
323.33 K, 40000 kPa
  mass density: 1072.99 ± 2.8 kg/m3
323.33 K, 45010 kPa
  mass density: 1075.75 ± 2.8 kg/m3
323.33 K, 50000 kPa
  mass density: 1078.47 ± 2.8 kg/m3
323.33 K, 55010 kPa
  mass density: 1081.14 ± 2.9 kg/m3
323.33 K, 59990 kPa
  mass density: 1083.74 ± 2.9 kg/m3
323.33 K, 65010 kPa
  mass density: 1086.3 ± 2.9 kg/m3
328.39 K, 210 kPa
  mass density: 1044.49 ± 2.8 kg/m3
328.39 K, 540 kPa
  mass density: 1044.74 ± 2.8 kg/m3
328.39 K, 1000 kPa
  mass density: 1045.08 ± 2.8 kg/m3
328.39 K, 3000 kPa
  mass density: 1046.53 ± 2.8 kg/m3
328.39 K, 5010 kPa
  mass density: 1047.96 ± 2.8 kg/m3
328.39 K, 7500 kPa
  mass density: 1049.68 ± 2.8 kg/m3
328.39 K, 9990 kPa
  mass density: 1051.4 ± 2.8 kg/m3
328.39 K, 15010 kPa
  mass density: 1054.74 ± 2.8 kg/m3
328.39 K, 19990 kPa
  mass density: 1057.9 ± 2.8 kg/m3
328.39 K, 25010 kPa
  mass density: 1061.01 ± 2.8 kg/m3
328.39 K, 29990 kPa
  mass density: 1064.03 ± 2.8 kg/m3
328.39 K, 35010 kPa
  mass density: 1066.99 ± 2.8 kg/m3
328.39 K, 40000 kPa
  mass density: 1069.88 ± 2.8 kg/m3
328.39 K, 45010 kPa
  mass density: 1072.64 ± 2.8 kg/m3
328.39 K, 50000 kPa
  mass density: 1075.39 ± 2.8 kg/m3
328.39 K, 55010 kPa
  mass density: 1078.08 ± 2.8 kg/m3
328.39 K, 59990 kPa
  mass density: 1080.67 ± 2.9 kg/m3
328.39 K, 65010 kPa
  mass density: 1083.24 ± 2.9 kg/m3
333.43 K, 210 kPa
  mass density: 1041.15 ± 2.7 kg/m3
333.43 K, 540 kPa
  mass density: 1041.43 ± 2.7 kg/m3
333.43 K, 1000 kPa
  mass density: 1041.76 ± 2.7 kg/m3
333.43 K, 3000 kPa
  mass density: 1043.19 ± 2.8 kg/m3
333.43 K, 5010 kPa
  mass density: 1044.61 ± 2.8 kg/m3
333.43 K, 7500 kPa
  mass density: 1046.4 ± 2.8 kg/m3
333.43 K, 9990 kPa
  mass density: 1048.13 ± 2.8 kg/m3
333.43 K, 15010 kPa
  mass density: 1051.51 ± 2.8 kg/m3
333.43 K, 19990 kPa
  mass density: 1054.8 ± 2.8 kg/m3
333.43 K, 25010 kPa
  mass density: 1057.94 ± 2.8 kg/m3
333.43 K, 29990 kPa
  mass density: 1060.97 ± 2.8 kg/m3
333.43 K, 35010 kPa
  mass density: 1063.96 ± 2.8 kg/m3
333.43 K, 40000 kPa
  mass density: 1066.84 ± 2.8 kg/m3
333.43 K, 45010 kPa
  mass density: 1069.67 ± 2.8 kg/m3
333.43 K, 50000 kPa
  mass density: 1072.43 ± 2.8 kg/m3
333.43 K, 55010 kPa
  mass density: 1075.17 ± 2.8 kg/m3
333.43 K, 59990 kPa
  mass density: 1077.73 ± 2.8 kg/m3
333.43 K, 65010 kPa
  mass density: 1080.29 ± 2.9 kg/m3
